In US11058700B2, “Macrocyclic lactones and uses thereof as modulators of purinergic receptors” (City of Hope, priority 2015, dated 2021):

Legend:
4T1.2 cells [1] = assay: Cell viability (acid phosphatase assay) of cancer cells treated with Ivermectin; assay type: cell-based, mouse; conditions: mouse and human breast cancer cells
Protocol: Cell viability. Cancer cells were plated on 96 well flat-bottom plates and allowed to attach overnight. Cells were then pre-incubated with drugs for 1 h and treated with Ivermectin for 4 h. In the case of 24 h and 48 h incubations the cells, Ivermectin and drugs were plated together. All treatments and controls were done in triplicate wells and results were validated in at least two independent experiments. Following treatment the plates were washed once with PBS and cell viability was measured using the acid phosphatase assay. Briefly, cells were incubated for 1h at 37° C. in 100 μL assay buffer (0.16 M sodium acetate, 0.1% Triton-X-100, supplemented with 4-Nitrophenyl phosphate disodium salt hexahydrate, Sigma Aldrich, at 0.00263 g/ml). Reaction was stopped using 10 μL of 1N sodium hydroxide. Absorption at 405 nm was measured within 10 min using a multi-well plate reader. Mode of cell death and viability of cells in suspension was evaluated using flow cytometry. Briefly, cancer cells were pre-incubated with drugs for 30 min to 1 h, as indicated, treated with Ivermectin for 4 h in 5 ml FACS tubes , washed twice in PBS and stained with PE-conjugated Annexin V and 7AAD (1 μl per 100 μl/200,000 cancer cells) for 15 min.

[2] = tested on: 4T1.2 breast cancer cells; assay: Flow cytometry of mode of cell death (Annexin V / 7AAD); assay type: cell-based, mouse; conditions: Ivermectin-treated breast cancer cells
Protocol: FIGS. 1A-1H. Ivermectin kills breast cancer cells through a mixed apoptotic and necrotic mechanism. FIG. 1A: Mouse (4T1.2) and human (MDA-MB-231) TNBC cells manifest similar sensitivity to Ivermectin. Viability of cells treated with various doses of Ivermectin for 24 h. FIG. 1B: Extended exposure time reduces IC50 values to as low as 2 μM. 4T1.2 cells were seeded at 100 cells/well and individual colonies were counted after a week. Cancer cells were exposed to Ivermectin during the initial 24 h or during the entire duration of the assay. FIG. 1C: MDA-MB-231 breast cancer cells manifest higher sensitivity to Ivermectin compared to normal non-transformed human foreskin fibroblasts (HFFs). FIG. 1D: Flow cytometry analysis showing that cell death proceeds through two distinct pathways: a directly necrotic 7AAD-single positive or Annexin V/PS-single positive apoptotic pathway. FIG. 1E: Kinetics of necrotic versus apoptotic killing of 4T1.2 breast cancer cells. FIG. 1F: Ivermectin-induced cell death can be reversed by inhibition of various controlled cell death pathways. […]
Cell viability. […] Following treatment the plates were washed once with PBS and cell viability was measured using the acid phosphatase assay. […] Absorption at 405 nm was measured within 10 min using a multi-well plate reader. Mode of cell death and viability of cells in suspension was evaluated using flow cytometry. […]

[3] = tested on: 4T1.2 breast cancer cells; assay: Plasma membrane polarization; assay type: cell-based; conditions: mouse 4T1.2 cells
Protocol: Plasma membrane polarization. Cancer cells in suspension were treated with various doses of Ivermectin in the presence of 0.5 μM DiBAC4 (3) (Sigma D8189). Treatments were performed in serum free RPMI medium and cells were analyzed by flow cytometry after 1h of incubation. De-/hyper-polarization results in increased/decreased fluorescence in the GFP channel, respectively.

4T1.2 cells [4] = assay: Cytosolic Ca2+ flux; assay type: cell-based, mouse
Protocol: Cytosolic Ca^2+ flux. Cancer cells in suspension were washed with PBS and loaded with 1 μM Rhod-3 AM (Life Technologies, R10145) for 30 min at room temperature in the dark. Cells were washed with PBS couple of times and treated with various doses of Ivermectin in R10 medium. Cells were incubated for 15 min to 4 h in 5 ml FACS tubes at 37° C. and 5% CO2, followed by immediate flow cytometry analysis of fluorescence in the PE channel. Chelating of extracellular and intracellular Ca^2+ was performed by supplementing the Ivermectin treatment medium with 1 mM EDTA (USB Corp, 15694) or by adding 20 μM BAPTA-AM (Tocris, 2787) to the Rhod-3 AM loading solution, respectively.

[5] = tested on: murine and human TNBC cells; assay: Reactive oxygen species; assay type: cell-based, mouse
Protocol: Reactive oxygen and nitrogen species. Cancer cells in suspension were washed with PBS and loaded with 50 μM H2DCFDA (Molecular Probes, Life Technologies, D399) or 5 μM DAF-2 (Cayman Chemical, Catalog #85165) for 30 min at room temperature in the dark. Cells were washed twice with PBS and treated with various doses of Ivermectin in R10 medium. Cells were incubated for 1h in 5 ml FACS tubes at 37° C. and 5% CO2, and immediately analyzed by flow cytometry. Generation of intracellular ROS and NO results in corresponding increases in the GFP fluorescence of the H2DCFDA and DAF-2 probes, respectively.

For `CC[C@H](C)[C@H]1O[C@]2(CC[C@@H]1C)C[C@@H]1C[C@@H](C/C=C(\C)[C@@H](O[C@H]3C[C@H](OC)[C@@H](O[C@H]4C[C@H](OC)[C@@H](O)[C@H](C)O4)[C@H](C)O3)[C@@H](C)/C=C/C=C3\CO[C@@H]4[C@H](O)C(C)=C[C@@H](C(=O)O1)[C@]34O)O2` [Ivermectin], the “Ivermectin doses giving rapid killing” value (4T1.2 cells [1]) was no less than 8 µM, the “dying cancer cells directly necrotic (7AAD-positive)” value [2] was “More than 90%” and the plasma membrane polarization [3] was “plasma membrane hyper-polarization”. The “cytosolic Ca2+” value (4T1.2 cells [4]) was “sustained increases in cytosolic Ca^2+” and the “generation of ROS” value [5] was “induces generation of ROS”.
